Measurements reported in US20040253665A1, “Novel peptide-producing enzyme, microbe producing the enzyme and method for dipeptide synthesis using them” (AJINOMOTO CO., INC., priority 2002, published 2004).
Like-named read-outs stand apart in the source and are kept apart here. Residues, ends and D or L forms follow the SMILES beside them.

B1: Papain: thiol endopeptidase described in EP 359399B1, purified enzyme manufactured by Sigma (protein, UniProt P00784 134-345, looked up)
Papain: IPEYVDWRQKGAVTPVKNQGSCGSCWAFSAVVTIEGIIKIRTGNLNEYSEQELLDCDRRSYGCNGGYPWSALQLVAQYGIHYRNTYPYEGVQRYCRSREKGPYAAKTDGVRQVQPYNEGALLYSIANQPVSVVLEAAGKDFQLYRGGIFVGPCGNKVDHAVAAVGYGPNYILIKNSWGTGWGENGYIRIKRGTGNSYGVCGLYTSSFYPVKN
B2: Carboxypeptidase Y: known enzyme described in EP 278787A1, purified enzyme manufactured by Sigma (protein, UniProt P00729 112-532, looked up)
Carboxypeptidase Y: KIKDPKILGIDPNVTQYTGYLDVEDEDKHFFFWTFESRNDPAKDPVILWLNGGPGCSSLTGLFFELGPSSIGPDLKPIGNPYSWNSNATVIFLDQPVNVGFSYSGSSGVSNTVAAGKDVYNFLELFFDQFPEYVNKGQDFHIAGESYAGHYIPVFASEILSHKDRNFNLTSVLIGNGLTDPLTQYNYYEPMACGEGGEPSVLPSEECSAMEDSLERCLGLIESCYDSQSVWSCVPATIYCNNAQLAPYQRTGRNVYDIRKDCEGGNLCYPTLQDIDDYLNQDYVKEAVGAEVDHYESCNFDINRNFLFAGDWMKPYHTAVTDLLNQDLPILVYAGDKDFICNWLGNKAWTDVLPWKYDEEFASQKVRNWTASITDEVAGEVKSYKHFTYLRVFNGGHMVPFDVPENALSMVNEWIHGGFSL

What was measured:
[1] = tested on: peptide-producing enzyme (Mono S fraction) from Empedobacter brevis strain FERM BP-8113; experiment: Enzyme substrate specificity (1)-(10), (13), (14); assay type: biochemical; conditions: L-amino acid 150 mM, pH 9.0, 25° C., 3 hours
In short: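 Mono S-purified peptide-forming enzyme from Empedobacter brevis FERM BP-8113, given L-amino acid esters (hydrochlorides) or amides as carboxy component with amino acids, C-protected amino acids, methylamine, β-amino acids or peptides as amine component. Dipeptide/oligopeptide product quantified; Tween-80 0.1% added with L-Trp-OMe.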

[2] = tested on: enzyme (SP-Sepharose HP fraction) derived from Sphingobacterium sp. strain FERM BP-8124; assay type: biochemical; design: key to Produced peptide (mM): +: those peptides for which production was confirmed but which were unable to be quantified due to the absence of a standard; a trace amount; conditions: 0.33 units enzyme, pH 9.0, 25° C., 1.5 hours; for Produced peptide: carboxy component 100 mM; for Produced peptide (mM): Table 15-4, amides or methylamine as components, 100 mM / 150 mM
Protocol: Substrate specificity was examined for enzyme derived from Sphingobacterium sp. strain FERM BP-8124 (Depositary institution: National Institute for Advanced Industrial Science and Technology, International Patent Organism Depositary, Address of depositary institution: Central. 6, 1-1-1 Higashi, Tsukuba City, Ibaraki Prefecture, Japan, International deposit date: Jul. 22, 2002). 100 μl of 100 mM borate buffer (pH 9.0) containing the various carboxy components at a final concentration of 100 mM and the various amine components at a final concentration of 150 mM shown in Tables 15-1 to 15-4, the SP-Sepharose HP fraction enzyme purified in Example 22 (addition of 0.33 units in the reaction liquid) and 10 mM EDTA were allowed to react at 25° C. for 1.5 hours. […] In addition, hydrochlorides were used for all carboxy components.
Substrate specificity with respect to oligopeptide production was examined for enzyme derived from Sphingobacterium sp. strain FERM BP-8124 (Depositary institution: National Institute for Advanced Industrial Science and Technology,.International Patent Organism Depositary, Address of depositary institution: Chuo Dai-6, 1-1 Higashi 1-Chome, Tsukuba-shi, Ibaraki-ken, Japan, International deposit date: Jul. 22, 2002). A 100 μl aliquot of 100 mM borate buffer (pH 9.0) containing the various carboxy components at a final concentration of 100 mM and the various amine components at a final concentration of 150 mM shown in Table 16, the SP-Sepharose HP fraction enzyme purified in Example 22 (addition of 0.33 units in the reaction liquid) and 10 mM EDTA were allowed to react for 1.5 hours at 25° C. Furthermore, hydrochloride salts were used for all carboxy components.

[3] = tested on: Empedobacter brevis strain FERM BP-8113 microbial cells; experiment: Production of peptide using microbial cells of Empedobacter brevis; assay type: cell-based; conditions: microbial cell suspension 100 g/L mixed 1:1 with 200 mM carboxy component and 400 mM amino acid, pH 9.0, 10 mM EDTA, 18° C., 2 hours
Protocol: A 50 mL medium (pH 6.2) containing 5 grams (hereinafter, “g”) of glucose, 5 g of ammonium sulfate, 1 g of monopotassium phosphate, 3 g of dipotassium phosphate, 0.5 g of magnesium sulfate, 10 g of yeast extract and 10 g of peptone in 1 liter (hereinafter, “L”) was transferred to a 500 mL Sakaguchi flask and sterilized at 115° C. for 15 minutes. This medium,was then inoculated with one loopful of the culture broth of Empedobacter brevis strain FERM BP-8113 (Depositary institution: National Institute for Advanced Industrial Science and Technology, International Patent Organism Depositary, Address of depositary institution: Chuo Dai-6, 1-1 Higashi 1-Chome, Tsukuba-shi, Ibaraki-ken, Japan, International deposit transfer date: Jul. 8, 2002) that had been cultured at 30° C. for 16 hours in the same medium, followed by shake culturing at 30° C. for 16 hours and 120 strokes/min.

[4] = tested on: peptide-producing enzyme (Mono S fraction) from Empedobacter brevis strain FERM BP-8113; experiment: Enzyme substrate specificity (1)-(10), (13), (14); assay type: biochemical; design: key: +: those peptides for which production was confirmed but which were unable to be quantified due to the absence of a standard; a trace amount; conditions: pH 9.0, 25° C., 3 hours
Description: Ester specificity was examined in the case of using L-amino acid ester for the carboxy component. […] The amounts of L-Ala-L-Gln produced in this reaction are shown in Table 4 (HCl represents hydrochloride in Table 4). Peptide production was examined in the case of using L-alanine methyl ester for the carboxy component and using various L-amino acids for the amine component. […] (The “+” mark indicates those peptides for which production was confirmed but which were unable to be quantified due to the absence of a standard, while “tr” indicates a trace amount.) Peptide production was examined in the case of using various types of L-amino acid methyl esters for the carboxy component and using L-glutamine for the amine component. […] Peptide production was examined in the case of using various L-amino acid methyl esters for the carboxy component and various L-amino acids for the amine component. […] (The “tr” indicates a trace amount.) Furthermore, Tween-80 was added to the reaction system to a final concentration of 0.1% in the case of using L-Trp-OMe. (The “+” mark indicates those peptides for which production was confirmed but which were unable to be quantified due to the absence of a standard.) […] (The “tr” indicates a trace amount.) Peptide production was examined using various L-amino acid amides for the carboxy component, and various L-amino acids for the amine component. […] Peptide production was examined in the case of using various L-alanine methyl esters for the carboxy component and C-protected L-amino acids for the amine component. […] Peptide production was examined in the case of using various amino acid methyl esters for the carboxy component and methylamine for the amine component. […] Peptide production was examined in the case of using β-amino acid ester for the carboxy component or β-amino acid for the amine component. […] (The “tr” indicates a trace amount.) Oligopeptide production was examined in the case of using L-amino acid ester for the carboxy component and peptide for the amine component. […] Substrate specificity was additionally assessed using the same enzyme fraction as that used in Example 5. […] (A “+” mark indicates those for which production was confirmed but which were unable to be quantified due to the absence of a standard, while “tr” indicates a trace amount). Substrate specificity with respect to oligopeptide production was assessed using the same enzyme fraction as Example 26. […] (A “+” mark indicates those for which production was confirmed but which were unable to be quantified due to the absence of a standard, while “tr” indicates a trace amount). It should be noted that hydrochlorides were used for all of the carboxy components.

[5] = Comparison of ability to catalyze peptide production with known enzymes; assay type: biochemical; conditions: for L-Ala-L-Gln production rate: 100 mM L-alanine methyl ester, 200 mM L-glutamine, borate buffer pH 9.0, 25° C., enzyme amount as in Table 14; for Ratio of L-Ala-L-Gln production rate per enzyme unit weight: enzyme of present invention = 100.0
Protocol: The peptide formation ability of the present enzyme was compared with that of known enzymes. […] The enzyme uniformly purified in Example 3 was used for the source of the enzyme of the present invention. The reaction was carried out by adding enzyme to 100 μl of borate buffer (pH 9.0) containing 100 mM L-alanine methyl ester and 200 mM L-glutamine and allowing to react at 25° C. Furthermore, enzyme dissolved in 10 mM acetate buffer (pH 5.0) containing 1 mM EDTA was used for the carboxypeptidase, while enzyme dissolved in 10 mM acetate buffer (pH 5.0) containing 2 mM EDTA, 0.1 M KCl and 5 mM dithiothreitol was used for the thiol endopeptidase.

[6] = L-amino acid methyl ester hydrochloride 100 mM
[7] = Table 15-3, amine component 150 mM
[8] = 100 mM L-alanine methyl ester hydrochloride
[9] = Table 15-1, amine component 150 mM
[10] = L-amino acid amide hydrochloride 100 mM as carboxy component

| Molecule | Produced peptide [1, 6] | Produced peptide [2, 7] | Produced peptide [3] | Produced peptide [1, 8] | Produced peptide [2, 9] | also measured |
| --- | --- | --- | --- | --- | --- | --- |
| NCC(=O)N[C@@H](Cc1cnc[nH]1)C(=O)O [Gly-L-His] (H-Gly-His-OH) | 31.6 mM | 36.2 mM | 22.1 mM |  |  |  |
| C[C@H](N)C(=O)N[C@@H](CCCN=C(N)N)C(=O)O [L-Ala-L-Arg] (H-Ala-Arg-OH) |  |  | 72.1 mM | 88.0 mM | 72.2 mM |  |
| C[C@H](N)C(=O)N[C@@H](Cc1cnc[nH]1)C(=O)O [L-Ala-L-His] (H-Ala-His-OH) |  |  | 52.1 mM | 66.9 mM | 73.6 mM | Produced peptide [1, 10]: 3.9 mM; Produced peptide (mM) [2]: tr |
| CC(C)C[C@H](NC(=O)[C@H](C)N)C(=O)O [L-Ala-L-Leu] (H-Ala-Leu-OH) |  |  | 38.2 mM | 45.3 mM | 33.0 mM |  |
| CSCC[C@H](NC(=O)[C@H](C)N)C(=O)O [L-Ala-L-Met] (H-Ala-Met-OH) |  |  | 68.3 mM | 83.3 mM | 86.9 mM | Produced peptide [1, 10]: 3.4 mM; Produced peptide (mM) [2]: tr |
| C[C@H](N)C(=O)N[C@@H](Cc1ccccc1)C(=O)O [L-Ala-L-Phe] |  |  | 62.4 mM | 74.4 mM | 69.5 mM |  |
| C[C@H](N)C(=O)N1CCC[C@H]1C(=O)O [L-Ala-L-Pro] (H-Ala-Pro-OH) |  |  |  |  | 1.5 mM | Produced peptide (mM) ([4]; 100 mM L-alanine methyl ester hydrochloride, L-amino acid 150 mM): tr |
| C[C@H](N)C(=O)N[C@@H](CO)C(=O)O [L-Ala-L-Ser] (H-Ala-Ser-OH) |  |  | 51.3 mM | 62.5 mM | 43.8 mM |  |
| CC[C@H](C)[C@H](N)C(=O)N[C@@H](CCSC)C(=O)O [L-Ile-L-Met] (H-Ile-Met-OH) | 10.0 mM | 5.1 mM | 8.3 mM |  |  |  |
| CSCC[C@H](N)C(=O)N[C@@H](Cc1ccccc1)C(=O)O [L-Met-L-Phe] (H-Met-Phe-OH) | 34.0 mM | 8.9 mM | 28.5 mM |  |  |  |
| N[C@@H](CO)C(=O)N[C@@H](CO)C(=O)O [L-Ser-L-Ser] (H-Ser-Ser-OH) | 38.0 mM | 9.9 mM | 29.0 mM |  |  |  |
| CC(C)C[C@H](NC(=O)[C@@H](N)[C@@H](C)O)C(=O)O [L-Thr-L-Leu] (H-Thr-Leu-OH) | 28.4 mM | 15.3 mM | 23.0 mM |  |  |  |
| CSCC[C@H](NC(=O)[C@@H](N)C(C)C)C(=O)O [L-Val-L-Met] (H-Val-Met-OH) | 10.3 mM | 6.8 mM | 10.5 mM |  |  |  |
| NC(=O)CC[C@H](NC(=O)[C@@H](N)CC(=O)O)C(=O)O [α-L-Asp-L-Gln] (H-Asp-Gln-OH) |  |  |  |  |  | Produced peptide ([2]; Table 15-2, L-Gln 150 mM): 0.05 mM; Produced peptide (mM) ([4]; L-amino acid methyl ester hydrochloride 100 mM, 150 mM L-glutamine): tr |
| Bromelain |  |  |  |  |  | L-Ala-L-Gln production rate [5]: 0.0062 mM/min; Ratio of L-Ala-L-Gln production rate per enzyme unit weight [5]: 0.0010 |
| Chymopapain: thiol endopeptidase described in EP 359399B1, purified enzyme manufactured by Sigma |  |  |  |  |  | L-Ala-L-Gln production rate [5]: 0.0100 mM/min; Ratio of L-Ala-L-Gln production rate per enzyme unit weight [5]: 0.0013 |
| Ficin |  |  |  |  |  | L-Ala-L-Gln production rate [5]: 0.0096 mM/min; Ratio of L-Ala-L-Gln production rate per enzyme unit weight [5]: 0.0017 |
| B1 |  |  |  |  |  | L-Ala-L-Gln production rate [5]: 0.0106 mM/min; Ratio of L-Ala-L-Gln production rate per enzyme unit weight [5]: 0.0021 |
| B2 |  |  |  |  |  | L-Ala-L-Gln production rate [5]: 0.0257 mM/min; Ratio of L-Ala-L-Gln production rate per enzyme unit weight [5]: 0.0191 |
